Measured values: PubChem BioAssay (NCI)
Several values for one entry are separate records, joined by “and”; a condition that tells them apart may be missing. Equal values may be shown once.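 Exposure lasted 48 hours, with cells grown in 96-well plates and compounds tested at five concentrations. GI50 is the concentration that inhibits growth by half. The concentration for full growth arrest is given as TGI.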

Assays:
Assay in all cases: NCI-60 cell line screen, 48 h
HT29 colon = test system: HT29 colon
HCT-15 colon = test system: HCT-15 colon
SF-539 CNS = test system: SF-539 CNS
TK-10 renal = test system: TK-10 renal
UACC-62 melanoma = test system: UACC-62 melanoma
786-0 renal = test system: 786-0 renal
SK-OV-3 ovarian = test system: SK-OV-3 ovarian
COLO 205 colon = test system: COLO 205 colon
HL-60(TB) leukemia = test system: HL-60(TB) leukemia
UO-31 renal = test system: UO-31 renal

SMILES	GI50 (HT29 colon)	TGI (HT29 colon)	GI50 (HCT-15 colon)	TGI (HCT-15 colon)	GI50 (SF-539 CNS)	TGI (SF-539 CNS)	GI50 (TK-10 renal)	TGI (TK-10 renal)	GI50 (UACC-62 melanoma)	TGI (UACC-62 melanoma)	GI50 (786-0 renal)	TGI (786-0 renal)	GI50 (SK-OV-3 ovarian)	TGI (SK-OV-3 ovarian)	GI50 (COLO 205 colon)	TGI (COLO 205 colon)	GI50 (HL-60(TB) leukemia)	GI50 (UO-31 renal)	TGI (HL-60(TB) leukemia)	TGI (UO-31 renal)
COc1cc(-c2nn(-c3cccc(NC(=O)c4ccccc4)c3)cc2-c2ccncc2)ccc1Cl	0.365 µM	> 45 µM	0.579 µM	> 100 µM	0.413 µM	2.65 µM	4.12 µM	> 83.8 µM	0.568 µM	> 100 µM	1.1 µM	> 100 µM	1.19 µM	> 100 µM	0.522 µM	3.23 µM	0.376 µM	0.4 µM	–	–
NC(=S)N/N=C1\c2cc(Cl)ccc2-c2c1cc(Cl)cc2[N+](=O)[O-]	10 µM	61.2 µM	4.33 µM	> 100 µM	6.16 µM	88.2 µM	20.5 µM	> 100 µM	3.16 µM	> 100 µM	5.41 µM	91.3 µM	9.4 µM	> 100 µM	3.84 µM	22.2 µM	6.15 µM	4.81 µM	51.9 µM	70.2 µM
c1ccc(Nc2ncc(-c3ccccc3)o2)cc1	> 25 µM	> 25 µM	24.3 µM	> 25 µM	> 25 µM	> 25 µM	> 25 µM	> 25 µM	> 25 µM	> 25 µM	> 25 µM	> 25 µM	> 25 µM	> 25 µM	> 25 µM	> 25 µM	24 µM	9.95 µM	> 25 µM	> 25 µM
CCNC(=O)C#Cc1ccc2c(C(=Nc3ccc(CN(C)C)cc3)c3ccccc3)c(O)[nH]c2c1	0.013 µM	1.39 µM	0.392 µM	4.62 µM	0.121 µM	1.27 µM	0.593 µM	> 5.41 µM	0.00709 µM	0.0775 µM	0.356 µM	2 µM	1.86 µM	> 10 µM	0.00363 µM	0.0711 µM	0.00976 µM	0.0811 µM	0.932 µM	1.34 µM
CC1(C)CC(c2c[nH]c3ccccc23)=CC2=Nc3ccccc3C21O (stereo not drawn)	–	> 100 µM	–	> 100 µM	–	> 100 µM	–	> 100 µM	–	> 100 µM	–	> 100 µM	–	> 100 µM	–	> 100 µM	–	–	> 100 µM	> 100 µM
CC(=O)OCc1ccc2c(c1)C(O)NC(=O)O2 (stereo not drawn)	–	> 100 µM	–	> 100 µM	–	> 100 µM	–	> 100 µM	–	> 100 µM	–	> 100 µM	–	> 100 µM	–	> 100 µM	–	–	> 100 µM	> 100 µM
CN(C)CC1CCCC/C1=N/O (stereo not drawn)	–	> 100 µM	–	> 100 µM	–	> 100 µM	–	> 100 µM	–	> 100 µM	–	> 100 µM	–	> 100 µM	–	> 100 µM	–	–	> 100 µM	> 100 µM
C=CC(=O)Nc1cc(Nc2nccc(-c3cn(C)c4ccccc34)n2)c(OC)cc1N(C)CCN(C)C	1.84 µM and 1.51 µM	4.07 µM and 3.24 µM	1.61 µM and 1.42 µM	3.69 µM and 3.27 µM	1.7 µM and 1.63 µM	3.29 µM and 3.16 µM	0.0615 µM and 0.0824 µM	15.5 µM and 2.02 µM	1.85 µM and 1.71 µM	3.61 µM and 3.4 µM	1.4 µM and 1.38 µM	2.94 µM and 2.9 µM	0.0501 µM and 0.0311 µM	18.1 µM and > 10 µM	1.62 µM and 1.43 µM	3.14 µM and 2.99 µM	1.47 µM and 1.71 µM	0.604 µM and 0.444 µM	3.33 µM and 3.99 µM	4.09 µM and 2.08 µM
COc1ccc(Cn2c(Br)c3c(c2Br)-c2nc(N)sc2CC3)cc1	4.14 µM	13.2 µM	2.67 µM	20.2 µM	3.48 µM	13.5 µM	3.69 µM	12.7 µM	6.97 µM	26 µM	5.02 µM	28.6 µM	4.01 µM	20 µM	2.2 µM	4.42 µM	2.75 µM	1.59 µM	22.6 µM	3.97 µM
